Where two headings read alike, the source gives them in different places. Where a SMILES comes first, the peptide text is derived from it. [ ]: non-standard residue; d: D form. The star is where a group is joined. Lauroyl = CCCCCCCCCCCC(=O)*; 12Ado = NCCCCCCCCCCCC(=O)O

Series [1] concerns panel of GNB: E. coli 35218, 14182, 16327, 16329, 14384, S. Typhimurium 14028, S. stanley 7308, K. pneumoniae 1287, KPC2. Nature of the series: MIC and chemo-sensitization, one result for the whole panel of GNB (Suppl. Table S1).
Another series relates to E. coli. The series is described as follows: MIC and reciprocal sensitization (Fig. 2a,b; Suppl. Figs S2, S3). In kind it is cell-based, Escherichia coli.
Another series relates to Klebsiella. Nature of the series: MIC (Suppl. Figs S2, S3). In kind it is cell-based.
In series [2] the test system is Human blood (red cells, 1% hematocrit). The settings on record: 3 h incubation in PBS 37°C; published data; cited from earlier work. An excerpt: Table 1 Structure-activity study highlighting biophysical attributes of N-terminal OAK derivatives | column: LC50 ^d (μM)
Setting [3] is: one value for all nine listed strains.
Setting [4] is: one value for all nine listed strains, OAK 1.25 µg/ml.
The mark [5] stands for this setting: one value for all nine listed strains, OAK 2.5 µg/ml.
[6] abbreviates: one value for all nine listed strains, OAK 5 µg/ml.

The term MIC denotes the least concentration at which growth counts as inhibited. Turning to `CC1(C)S[C@@H]2[C@H](NC(=O)Cc3ccccc3)C(=O)N2[C@H]1C(=O)O` [Penicillin G, penicillin G], the “SF, sensitization factor, penicillin G with C10KKc12K” value in series [1] (setting [3]) is 1. In addition, in series [1] (setting [3]), the “SF, sensitization factor, penicillin G with C12(ω7)KKc12K” value was 1. In addition, the “MIC of penicillin G in presence of C10KKc12K” value in series [1] (setting [4]), in series [1] (setting [5]) and in series [1] (setting [6]) was above 512 µg/mL throughout. Moreover, the “MIC of penicillin G in presence of C12(ω7)KKc12K” value in series [1] (setting [4]), in series [1] (setting [5]) and in series [1] (setting [6]) was above 512 µg/mL each time. For the same molecule, the MIC in series [1] (read-out: MIC of penicillin G in presence of C10KKc12K) and in series [1] (read-out: MIC of penicillin G in presence of C12(ω7)KKc12K) was above 512 µg/mL each time.

Consider `CC[C@H]1OC(=O)[C@H](C)[C@@H](O[C@H]2C[C@@](C)(OC)[C@@H](O)[C@H](C)O2)[C@H](C)[C@@H](O[C@@H]2O[C@H](C)C[C@H](N(C)C)[C@H]2O)[C@](C)(O)C[C@@H](C)C(=O)[C@H](C)[C@@H](O)[C@]1(C)O` [erythromycin], for which the “standalone antibiotic MIC” value in the series with E. coli and with Klebsiella was 512 µg/mL each time.

Take `CCCCCCCCCCCC(=O)N[C@@H](CCCCN)C(=O)N[C@@H](CCCCN)C(=O)NCCCCCCCCCCCC(=O)N[C@@H](CCCCN)C(N)=O` [C12X] (Lauroyl-KK[12Ado]K-NH2): the “LC50, OAK concentration that induced 50% hemolysis” value in series [2] was 29 ± 9 µM.

Consider `NCCCC[C@H](NC(=O)CCCCCCCCCCCNC(=O)[C@H](CCCCN)NC(=O)[C@@H](N)CCCCN)C(N)=O` [X, lysyl-lysyl-aminododecanoyl-lysyl-amide] (H-KK[12Ado]K-NH2), for which the “LC50, OAK concentration that induced 50% hemolysis” value in series [2] was above 100 µM.

Source of the values: PMC4363860 (Scientific Reports, 2015).
